This passage reports inhibition results from ChEMBL document CHEMBL3124763.

The assay has as its target Furin (Homo sapiens) (UniProt P09958). Put plainly: Inhibition of furin in human HEK293FT cells assessed as HA5 maturation at 25 uM after 48 hrs by Western blotting analysis. The assay is classed as cell-based. Background: A western blot detects proteins with antibodies after separation by electrophoresis.

Calls of active or inactive are those of the source. The calls are words filed in the database; no cut-off is given here. Where a SMILES comes first, the peptide text is derived from it. The star is where a group is joined. Decanoyl = CCCCCCCCCC(=O)*; CH2Cl = ClC*

Furin (Homo sapiens), sequence (P09958 whole entry): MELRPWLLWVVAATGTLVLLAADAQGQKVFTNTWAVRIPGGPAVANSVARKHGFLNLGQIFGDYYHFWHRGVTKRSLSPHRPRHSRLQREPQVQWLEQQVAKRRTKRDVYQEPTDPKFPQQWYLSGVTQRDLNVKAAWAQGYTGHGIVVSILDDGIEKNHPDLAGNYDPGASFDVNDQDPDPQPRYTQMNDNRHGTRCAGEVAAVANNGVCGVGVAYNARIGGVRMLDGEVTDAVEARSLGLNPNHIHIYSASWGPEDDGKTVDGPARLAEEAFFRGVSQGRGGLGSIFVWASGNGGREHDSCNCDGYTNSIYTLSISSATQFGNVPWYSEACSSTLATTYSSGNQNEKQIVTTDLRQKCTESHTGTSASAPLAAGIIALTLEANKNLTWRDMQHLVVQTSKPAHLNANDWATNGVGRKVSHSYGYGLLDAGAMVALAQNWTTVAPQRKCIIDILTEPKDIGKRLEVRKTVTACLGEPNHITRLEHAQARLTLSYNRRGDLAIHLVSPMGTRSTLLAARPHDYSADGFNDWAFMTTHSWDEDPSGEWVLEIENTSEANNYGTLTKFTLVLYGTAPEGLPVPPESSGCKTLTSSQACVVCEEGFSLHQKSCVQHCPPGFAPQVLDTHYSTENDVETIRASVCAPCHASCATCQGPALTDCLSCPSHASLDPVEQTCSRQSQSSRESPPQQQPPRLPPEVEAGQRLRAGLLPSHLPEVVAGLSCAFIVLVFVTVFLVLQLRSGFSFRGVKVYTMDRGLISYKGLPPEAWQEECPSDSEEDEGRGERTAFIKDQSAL

As to `CCCCCCCCCC(=O)N[C@@H](CCCNC(=N)N)C(=O)N[C@H](C(=O)N[C@@H](CCCCN)C(=O)N[C@@H](CCCNC(=N)N)C(=O)CCl)C(C)C` (Decanoyl-RVKR-CH2Cl), the inhibition result is “Active”.
